{
  "source": "ChEMBL document CHEMBL1201862",
  "about": "“PubChem BioAssay data set” (2004)",
  "test_in_all_cases": "inhibition of tumour cell growth, NCI panel, 48 h",
  "key": {"CAKI-1": {"test_system": "CAKI-1"}, "SF-295": {"test_system": "SF-295"}, "SK-MEL-5": {"test_system": "SK-MEL-5"}, "CCRF-CEM": {"test_system": "CCRF-CEM"}, "OVCAR-3": {"test_system": "OVCAR-3"}, "SK-MEL-2": {"test_system": "SK-MEL-2"}, "NCI-H226": {"test_system": "NCI-H226"}, "ACHN": {"test_system": "ACHN"}, "SK-OV-3": {"test_system": "SK-OV-3"}, "NCI-H522": {"test_system": "NCI-H522"}, "SN12C": {"test_system": "SN12C"}, "SK-MEL-28": {"test_system": "SK-MEL-28"}, "K562": {"test_system": "K562"}, "A549": {"test_system": "A549"}, "MCF7": {"test_system": "MCF7"}, "MOLT-4": {"test_system": "MOLT-4"}, "786-0": {"test_system": "786-0"}, "MDA-MB-231": {"test_system": "MDA-MB-231"}, "PC-3": {"test_system": "PC-3"}, "SF-539": {"test_system": "SF-539"}, "U-251": {"test_system": "U-251"}, "OVCAR-5": {"test_system": "OVCAR-5"}, "OVCAR-8": {"test_system": "OVCAR-8"}, "SF-268": {"test_system": "SF-268"}, "SNB-75": {"test_system": "SNB-75"}, "HCC 2998": {"test_system": "HCC 2998"}, "NCI-H460": {"test_system": "NCI-H460"}, "HCT-116": {"test_system": "HCT-116"}, "M14": {"test_system": "M14"}, "SR": {"test_system": "SR"}, "A498": {"test_system": "A498"}, "LOX IMVI": {"test_system": "LOX IMVI"}, "MDA-N": {"test_system": "MDA-N"}, "Malme-3M": {"test_system": "Malme-3M"}, "HL-60": {"test_system": "HL-60"}, "SNB-19": {"test_system": "SNB-19"}, "HOP-62": {"test_system": "HOP-62"}, "HOP-92": {"test_system": "HOP-92"}, "KM12": {"test_system": "KM12"}, "NCI/ADR-RES": {"test_system": "NCI/ADR-RES"}, "IGROV-1": {"test_system": "IGROV-1"}, "Hs-578T": {"test_system": "Hs-578T"}, "T47D": {"test_system": "T47D"}, "OVCAR-4": {"test_system": "OVCAR-4"}, "COLO 205": {"test_system": "COLO 205"}, "NCI-H23": {"test_system": "NCI-H23"}, "MDA-MB-435": {"test_system": "MDA-MB-435"}, "UO-31": {"test_system": "UO-31"}, "UACC-257": {"test_system": "UACC-257"}, "RPMI-8226": {"test_system": "RPMI-8226"}, "SW-620": {"test_system": "SW-620"}, "HCT-15": {"test_system": "HCT-15"}, "RXF 393": {"test_system": "RXF 393"}, "UACC-62": {"test_system": "UACC-62"}, "BT-549": {"test_system": "BT-549"}, "HT-29": {"test_system": "HT-29"}, "DU-145": {"test_system": "DU-145"}, "TK-10": {"test_system": "TK-10"}, "EKVX": {"test_system": "EKVX"}},
  "note": "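Method: 48-hour compound exposure of cells in 96-well plates, five concentrations, linear interpolation of endpoints. GI50: concentration for 50% inhibition of growth.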 The source made the active and inactive calls. Cut-off read from the data, not from the text of the source: active = GI50 up to about 1.1 µM and inactive = higher.",
  "data": [
    {"smiles": "CCOC(=O)c1nc2cc(Cl)ccc2[nH]c1=O", "values": [
      {"measurement": "GI50", "setting": "CAKI-1", "value": "> 100 µM (inactive)"},
      {"measurement": "GI50", "setting": "SF-295", "value": "> 100 µM (inactive)"},
      {"measurement": "GI50", "setting": "SK-MEL-5", "value": "> 100 µM (inactive)"},
      {"measurement": "GI50", "setting": "CCRF-CEM", "value": "> 100 µM (inactive)"},
      {"measurement": "GI50", "setting": "OVCAR-3", "value": "> 100 µM (inactive)"},
      {"measurement": "GI50", "setting": "SK-MEL-2", "value": "> 100 µM (inactive)"},
      {"measurement": "GI50", "setting": "NCI-H226", "value": "> 100 µM (inactive)"},
      {"measurement": "GI50", "setting": "ACHN", "value": "> 100 µM (inactive)"},
      {"measurement": "GI50", "setting": "SK-OV-3", "value": "> 100 µM (inactive)"},
      {"measurement": "GI50", "setting": "NCI-H522", "value": "> 100 µM (inactive)"},
      {"measurement": "GI50", "setting": "SN12C", "value": "> 100 µM (inactive)"},
      {"measurement": "GI50", "setting": "SK-MEL-28", "value": "> 100 µM (inactive)"},
      {"measurement": "GI50", "setting": "K562", "value": "> 100 µM (inactive)"},
      {"measurement": "GI50", "setting": "A549", "value": "> 100 µM (inactive)"},
      {"measurement": "GI50", "setting": "MCF7", "value": "> 100 µM (inactive)"},
      {"measurement": "GI50", "setting": "MOLT-4", "value": "> 100 µM (inactive)"},
      {"measurement": "GI50", "setting": "786-0", "value": "> 100 µM (inactive)"},
      {"measurement": "GI50", "setting": "MDA-MB-231", "value": "> 100 µM (inactive)"},
      {"measurement": "GI50", "setting": "PC-3", "value": "> 100 µM (inactive)"},
      {"measurement": "GI50", "setting": "SF-539", "value": "> 100 µM (inactive)"},
      {"measurement": "GI50", "setting": "U-251", "value": "> 100 µM (inactive)"},
      {"measurement": "GI50", "setting": "OVCAR-5", "value": "> 100 µM (inactive)"},
      {"measurement": "GI50", "setting": "OVCAR-8", "value": "> 100 µM (inactive)"},
      {"measurement": "GI50", "setting": "SF-268", "value": "> 100 µM (inactive)"},
      {"measurement": "GI50", "setting": "SNB-75", "value": "< 0.01 µM (active)"},
      {"measurement": "GI50", "setting": "HCC 2998", "value": "> 100 µM (inactive)"},
      {"measurement": "GI50", "setting": "NCI-H460", "value": "53.7 µM (inactive)"},
      {"measurement": "GI50", "setting": "HCT-116", "value": "> 100 µM (inactive)"},
      {"measurement": "GI50", "setting": "M14", "value": "> 100 µM (inactive)"},
      {"measurement": "GI50", "setting": "SR", "value": "> 100 µM (inactive)"},
      {"measurement": "GI50", "setting": "A498", "value": "> 100 µM (inactive)"},
      {"measurement": "GI50", "setting": "LOX IMVI", "value": "> 100 µM (inactive)"},
      {"measurement": "GI50", "setting": "MDA-N", "value": "> 100 µM (inactive)"},
      {"measurement": "GI50", "setting": "Malme-3M", "value": "> 100 µM (inactive)"},
      {"measurement": "GI50", "setting": "HL-60", "value": "> 100 µM (inactive)"},
      {"measurement": "GI50", "setting": "SNB-19", "value": "> 100 µM (inactive)"},
      {"measurement": "GI50", "setting": "HOP-62", "value": "> 100 µM (inactive)"},
      {"measurement": "GI50", "setting": "HOP-92", "value": "> 100 µM (inactive)"},
      {"measurement": "GI50", "setting": "KM12", "value": "> 100 µM (inactive)"},
      {"measurement": "GI50", "setting": "NCI/ADR-RES", "value": "> 100 µM (inactive)"},
      {"measurement": "GI50", "setting": "IGROV-1", "value": "> 100 µM (inactive)"},
      {"measurement": "GI50", "setting": "Hs-578T", "value": "> 100 µM (inactive)"},
      {"measurement": "GI50", "setting": "T47D", "value": "> 100 µM (inactive)"},
      {"measurement": "GI50", "setting": "OVCAR-4", "value": "> 100 µM (inactive)"},
      {"measurement": "GI50", "setting": "COLO 205", "value": "> 100 µM (inactive)"},
      {"measurement": "GI50", "setting": "NCI-H23", "value": "> 100 µM (inactive)"},
      {"measurement": "GI50", "setting": "MDA-MB-435", "value": "> 100 µM (inactive)"},
      {"measurement": "GI50", "setting": "UO-31", "value": "> 100 µM (inactive)"},
      {"measurement": "GI50", "setting": "UACC-257", "value": "> 100 µM (inactive)"},
      {"measurement": "GI50", "setting": "RPMI-8226", "value": "> 100 µM (inactive)"},
      {"measurement": "GI50", "setting": "SW-620", "value": "> 100 µM (inactive)"},
      {"measurement": "GI50", "setting": "HCT-15", "value": "> 100", "unit": "µM"},
      {"measurement": "GI50", "setting": "RXF 393", "value": "> 100 µM (inactive)"},
      {"measurement": "GI50", "setting": "UACC-62", "value": "> 100 µM (inactive)"},
      {"measurement": "GI50", "setting": "BT-549", "value": "> 100 µM (inactive)"},
      {"measurement": "GI50", "setting": "HT-29", "value": "> 100 µM (inactive)"},
      {"measurement": "GI50", "setting": "DU-145", "value": "> 100 µM (inactive)"},
      {"measurement": "GI50", "setting": "TK-10", "value": "> 100 µM (inactive)"},
      {"measurement": "GI50", "setting": "EKVX", "value": "> 100 µM (inactive)"}
    ]}
  ]
}
